Laboratory results as given in patent publication US20080287398A1, “COLD MENTHOL RECEPTOR-1 ANTAGONISTS” (priority 2007, published 2008).

Tested on: mice
Assay: CFA-induced paw cold hypersensitivity (acetone-evoked paw licking)
Type: in vivo
Settings: mouse; 60 mg/kg p.o.; time 30′; acetone licking duration vs vehicle
Experimental: Prior to intraplantar CFA injection mice were placed individually in elevated observation chambers having wire mesh floors. Through the mesh floor a series of three applications of acetone (0.04 mL/application) was sprayed onto the bottom of the paw using a multidose syringe device. A positive response took the form of an abrupt withdrawal and licking of the paw. The cumulative duration of licking was recorded for each of the three trials which were then averaged to give the individual's response. Twenty-four hours following CFA injection acetone licking durations were markedly elevated implying a hypersensitivity to cooling. A test compound of Formula (I) was assessed for its ability to return acetone-evoked paw licking durations to pre-CFA levels (typically near zero) following systemic administration. Percent inhibition was calculated % inhibition=[1−(treatment licking duration/vehicle licking duration)]×100.

For `CC(C)OP(=O)(OC(C)C)[C@@H](Cc1ccc(F)c(C(F)(F)F)c1)c1sc2ccccc2c1Br` [Cpd 242, (S)-[1-(3-Bromo-benzo[b]thiophen-2-yl)-2-(4-fluoro-3-trifluoromethyl-phenyl)-ethyl]-phosphonic acid diisopropyl ester], which “% I” value is on record?
The value was 84%.
